# Key:
# [1] = test system: WiDr human colon adenocarcinoma cells; assay: In vitro activity against human tumour cell line WiDr (proliferation); assay type: cell-based; details: 96 h, MTT, read-out: IC50
# Description: (§1) Cells from the human tumour cell lines DLD-1, HCT-116, WiDr and A549 are exposed to serially diluted concentrations of test compounds over a 96 hour period in culture. The ability of such cells to proliferate over the test period is determined.
# (§2) Cells in log growth are plated into 96 well multiwell tissue culture dishes in 100 μl/well of RPMI 1640 culture medium supplemented with 10% foetal calf serum, antibiotics and test compound. All compounds are formulated initially at appropriate concentrations in DMSO, the final concentrations in this solvent being twenty times that required in the plate. A final 1 in 10 dilution in complete medium is then made before adding 100 μl to each well of the plate. All compounds are evaluated at concentrations ranging serially in four fold decrements from a top concentration some four fold greater than that already known to inhibit the proliferation of cells from the mouse lymphoid neoplasm, P388D1 by about 80 to 90 percent in a primary proliferative assay.
# (§3) After 96 hours the proliferation of cells exposed to test compound is compared with control untreated cells by one of two methods:
# (§4) b) 20 μl of MTT (5 mg/ml in PBS) is added to each well. After an incubation period of 4 hours the medium from each well is aspirated and replaced with 200 μl DMSO to dissolve the formazan crystals formed. Absorbances are read by an ELISA plate spectrophotometer at a wavelength of 540 nm. The IC50 is defined as that concentration of drug which decreases absorbance to 50% of that in control (drug-free) cultures. This method is used for the WiDr, HCT-116 and A549 cell lines.
# L1210 = assay: In vivo activity against murine tumour L1210; design: species or system mouse
# [2] = test system: HCT-116 human colon carcinoma cells; assay: In vitro activity against human tumour cell line HCT-116 (proliferation); assay type: cell-based; details: HCT-116, 96 h, MTT, read-out: IC50
# Description: as §1, §2, §3, §4
# LD20 (Mouse) = assay type: in vivo; details: i.p. days 1, 5 and 9, CD2-F1 mice, observed up to 14 days
# P388/O tumour = assay: Lymphocytic leukaemia P388/O test; assay type: in vivo, mouse; details: 10 mg/kg i.p. days 1, 5 and 9
# Description: C. Lymphocytic Leukemia P388/O Test
# (§5) CD2-F1 mice, of the same sex, weighing within a 3 gram range surrounding 20 g, are used for this test. Control and test animals are injected intraperitoneally with a suspension of 10^6 viable P388/O tumour cells on day 0. In each test several dose levels which bracket the LD20 for the compound are evaluated; each dose level group contains 6 animals. The test compounds are prepared either in physiologic saline containing 0.05% Tween 80 or distilled water containing 5% dextrose and are administered intraperitoneally on days 1,5 and 9 relative to tumour implant. Doses are on a mg/kg basis according to individual animals' body weights. The day of death for each animal is recorded and the median day of death identified for each group. The difference between the median survival time for treated and control groups is expressed as a percentage increase in life span (% ILS).
# [3] = test system: A549 human lung carcinoma cells; assay: In vitro activity against human tumour cell line A549 (proliferation); assay type: cell-based; details: A549, 96 h, MTT, read-out: IC50
# Description: as §1, §2, §3, §4
# B16 = assay: In vivo activity against murine tumour B16; design: species or system mouse
# Description: as §5
# G. In vivo activity of the compound of Example 1 against murine tumours
# Using a similar procedure to the Lymphocytic Leukaemia P388/O test the compound of Example 1 was evaluated against the murine tumours B16, L1210 and M5076. A suspension of 10^6 tumour cells is implanted intraperitoneally into control and test animals on day zero. B16 tumour cells are administered intraperitoneally as a 1:10 Brei of cells on day zero. […] The day of death for each animal is recorded and the %ILS (percentage increase in life-span) calculated.
# P388/ADR = assay: In vivo activity against drug resistant tumour P388/ADR; design: species or system mouse; details: optimum dose 10.0 mg/kg
# Description: as §5
# (§6) E. Activity Against Drug-Resistant Tumours
# (§7) Using a similar procedure to the Lymphocytic Leukaemia P388/O test, the compound of Example 1 was evaluated against P388/O tumours which had been made resistant to the following standard, clinically used anti-tumour agents: […]
# P388/CPA = assay: In vivo activity against drug resistant tumour P388/CPA; design: species or system mouse; details: optimum dose 12.5 mg/kg
# P388/MTX = assay: In vivo activity against drug resistant tumour P388/MTX; design: species or system mouse; details: optimum dose 7.5 mg/kg
# Description: as §5, §6, §7
# P388/AMSA = assay: In vivo activity against drug resistant tumour P388/AMSA; design: species or system mouse; details: optimum dose 5.0 mg/kg
structure (smiles),measurement,setting,value
"COC(=O)Nc1cn2nc(OCc3cc(OC)c(OC)c(OC)c3)ccc2n1 [Example 1, Methyl N-[6-(3,4,5-trimethoxybenzyloxy)imidazo[1,2-b]pyridazin-2-yl]carbamate]",IC50,[1],30 nM
same,Mean % ILS (±SEM),"L1210; 10 mg/kg i.p. days 1, 5 and 9, 2 expts",134 (±72) %
same,activity in vivo against L1210 leukaemia,L1210; in words,good activity
same,IC50,[2],9.2 nM
same,LD50,LD20 (Mouse),20 to 30 mg/kg
same,30 Day survivors,P388/O tumour,6/6
same,60 Day Survivors,P388/O tumour,2/6
same,ILS at 10 mg/kg,"P388/O tumour; Mus musculus, P388, ip",300%
same,IC50,[3],24 nM
same,Mean % ILS (±SEM),"B16; 5 mg/kg i.p. days 1, 5 and 9, 3 expts",69 (±4) %
same,activity in vivo against B16 melanoma,B16; in words,good activity
same,60 Day Survivors,P388/ADR,0/6
same,% ILS,P388/ADR,+90%
same,60 Day Survivors,P388/CPA,1/6
same,% ILS,P388/CPA,+150%
same,60 Day Survivors,P388/MTX,1/6
same,% ILS,P388/MTX,+100%
same,60 Day Survivors,P388/AMSA; (day 31),4/6
same,% ILS,P388/AMSA,+134%

# From patent publication US5380759A, “Methyl N-[6-(3,4,5-trimethoxybenzloxy)imidazo[1,2-b]pyridazin-2-zyl]carbamate used to treat leukemia” (priority 1987, dated 1995)
